# From paper PMC4804155 (Chembiochem : a European journal of chemical biology, 2015)
# Read-outs that look alike come from different tables or passages of the source.
# How the values were obtained:
# [1] = biological target: T1, MOF (male absent on the first, MYST1, HAT8) (Homo sapiens, UniProt Q9H7Z6, I317A); assay: CPM fluorogenic enzyme kinetics, Km; format: biochemical
# T1 sequence (Q9H7Z6 174-447 I317A limits assumed): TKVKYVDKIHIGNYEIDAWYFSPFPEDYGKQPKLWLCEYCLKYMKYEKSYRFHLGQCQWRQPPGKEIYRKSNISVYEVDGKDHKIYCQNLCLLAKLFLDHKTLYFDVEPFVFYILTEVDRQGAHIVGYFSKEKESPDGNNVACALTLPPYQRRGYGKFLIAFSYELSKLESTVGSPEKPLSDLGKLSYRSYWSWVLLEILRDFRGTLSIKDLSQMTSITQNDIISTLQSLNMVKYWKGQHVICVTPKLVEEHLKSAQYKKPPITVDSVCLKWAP
# [2] = biological target: MOF (male absent on the first, MYST1, HAT8) (Homo sapiens, UniProt Q9H7Z6)
# Chain of MOF (male absent on the first, MYST1, HAT8) (Homo sapiens, UniProt Q9H7Z6) (Q9H7Z6 2-458): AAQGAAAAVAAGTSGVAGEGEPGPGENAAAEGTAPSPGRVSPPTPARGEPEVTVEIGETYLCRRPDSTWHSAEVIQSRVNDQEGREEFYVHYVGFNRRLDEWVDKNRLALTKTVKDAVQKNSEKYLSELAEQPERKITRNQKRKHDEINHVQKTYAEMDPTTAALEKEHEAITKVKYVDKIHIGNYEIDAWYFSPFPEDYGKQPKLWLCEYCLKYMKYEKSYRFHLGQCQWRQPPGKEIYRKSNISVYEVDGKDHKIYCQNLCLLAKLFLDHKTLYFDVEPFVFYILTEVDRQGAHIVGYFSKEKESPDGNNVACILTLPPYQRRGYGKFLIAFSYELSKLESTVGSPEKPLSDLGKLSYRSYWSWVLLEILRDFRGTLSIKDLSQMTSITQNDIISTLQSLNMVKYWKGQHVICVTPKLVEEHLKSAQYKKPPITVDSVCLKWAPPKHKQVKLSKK
# [3] = biological target: T1, MOF (male absent on the first, MYST1, HAT8)
SMILES,Km [1],Km [2],Km [3]
CC(C)(COP(=O)(O)OP(=O)(O)OC[C@H]1O[C@@H](n2cnc3c(N)ncnc32)[C@H](O)[C@@H]1OP(=O)(O)O)[C@@H](O)C(=O)NCCC(=O)NCCSC(=O)CCN=[N+]=[N-] [3-azidopropanoyl CoA],2700 ± 200 nM,,
CC(=O)SCCNC(=O)CCNC(=O)[C@H](O)C(C)(C)COP(=O)(O)OP(=O)(O)OC[C@H]1O[C@@H](n2cnc3c(N)ncnc32)[C@H](O)[C@@H]1OP(=O)(O)O [acetyl-CoA],,1300 ± 100 nM,3.5 ± 0.2 µM
